Source: patent US12377110B2, “Fospropofol methods and compositions” (Epalex Corporation, priority 2019, dated 2025)
Where two headings read alike, the source gives them in different places.

Key:
[1] = Study A16 Part 2: PK of a single dose of 1200 mg fospropofol disodium following a high-fat meal; type: in vivo, human
Experimental: Part 2 of Study A16 was a double-blind, placebo-controlled, single-close pilot study to investigate the PK, safety, and tolerability of 1200 mg of fospropofol disodium administered to healthy adult men and women following a high-fat meal.
Subjects were healthy adults (age 18-55 years inclusive, BMI 18-29.9 kg/m^2). A separate cohort of 15 subjects was randomly assigned to receive a single oral dose of either fospropofol disodium (n=12) or matching placebo (n=3) within 30 minutes (±1 minute) after the start of a standardized high-fat meal.
Subjects were admitted to the clinical unit for an overnight fast (Day −1), administered study drug on Day 1 within 30 minutes of the start a standardized high-fat meal, and remained in the clinical unit until Day 2.
Fospropofol disodium was formulated as powder in 6 HPMC capsules, each capsule containing 200 mg of fospropofol disodium (weight adjusted for water content). Placebo was administered as 6 matching capsules.

[2] = Study A16 Part 1: PK of single ascending oral doses of fospropofol disodium (200 to 2000 mg), fasted healthy adults; type: in vivo, human; settings: for AUC / Cmax / Tmax / AUC(0-t) / AUC(0-inf) / half-life: both sexes, human, plasma; for Cmax: read-out: Fospropofol Cmax; for AUC(0-t): read-out: Fospropofol AUC0-T; for AUC(0-inf): read-out: Fospropofol AUC0-∞; for half-life: read-out: Fospropofol t1/2 (converted)
Experimental: Part 1 of Study A16 was a double-blind, randomized, placebo-controlled study to investigate the safety-tolerability and PK of oral administration of single ascending doses of fospropofol disodium to healthy adult male and female volunteers.
Subjects were healthy adults (age 18-55 years inclusive, BMI 18-29.9 kg/m^2). Separate cohorts of 12 subjects each were randomized to receive fospropofol disodium at doses of 200, 400, 800, 1000, 1200, 1600, or 2000 mg (n=10 per cohort) or matching placebo (n=2 per cohort).
Subjects were admitted to the clinical unit for an overnight fast (Day −1), administered study drug on Day 1, and remained in the clinical unit until Day 2.
Fospropofol disodium was formulated as powder in an HPMC capsule, each capsule containing 200 mg of fospropofol disodium (weight adjusted for water content). Placebo was administered as an appropriate number of matching capsules.
Based on PK results from the early cohorts, sampling times were optimized beginning with Cohort 3 (800 mg) to preclose, 5, 10, 15, 20, 25, 30, 37, and 45, minutes and 1, 2, 4, 6, and 9 hours after closing.

[3] = oral fospropofol disodium 200 mg, mean
[4] = oral fospropofol disodium 400 mg, mean
[5] = oral fospropofol disodium 800 mg, mean
[6] = oral fospropofol disodium 1000 mg, mean
[7] = oral fospropofol disodium 1200 mg, mean
[8] = oral fospropofol disodium 1600 mg, mean
[9] = oral fospropofol disodium 2000 mg, mean

With `CC(C)c1cccc(C(C)C)c1OCOP(=O)(O)O` [fospropofol, (2,6-diisopropylphenoxy)methyl dihydrogen phosphate] the “Effect of high-fat meal on exposure” value ([1]; 1200 mg within 30 minutes after the start of a high-fat meal) was “significant reduction in exposure”, the “Mean exposure to fospropofol (both Cmax and AUC) under fed conditions relative to fasting” value ([1]; 1200 mg, high-fat meal vs fasting) was “approximately 24%” and the Tmax ([1]; both sexes, human, plasma, oral, 1200 mg, fed, no appreciable effect, read-out: Fospropofol Tmax (median)) was 20 min. It also gave an AUC(0-inf) ([1]; both sexes, human, plasma, oral fospropofol disodium 1200 mg, Fed (Cohort 8), n = 10/12, mean, read-out: Fospropofol AUC0-∞) of 1080 ng·h/mL, a half-life ([1]; both sexes, human, plasma, oral fospropofol disodium 1200 mg, Fed (Cohort 8), n = 10/12, mean, read-out: Fospropofol t1/2 (converted)) of 15.6 min and a Cmax ([1]; both sexes, human, plasma, oral fospropofol disodium 1200 mg, Fed (Cohort 8), n= 12, mean) of 1790 ng/mL. For the same compound, the AUC(0-t) ([1]; both sexes, human, plasma, oral fospropofol disodium 1200 mg, Fed (Cohort 8), n= 12, mean, read-out: Fospropofol AUC0-T) was 993 ng·h/mL, the Tmax ([1]; both sexes, human, plasma, oral fospropofol disodium 1200 mg, Fed (Cohort 8), n= 12, median, read-out: Fospropofol Tmax) was 19.8 min and the “Fospropofol CL/F” value ([1]; oral fospropofol disodium 1200 mg, Fed (Cohort 8), n = 10/12, mean) was 4122 L/h. The “Dose proportionality of fospropofol AUC0-2h, AUC0-T, AUC0-∞, and Cmax (power model)” value ([2]; 200 mg to 2000 mg) was “close proportional”, the AUC ([2]; oral, 800 mg, subjects 301-312 (800 mg cohort), Mean, read-out: Fospropofol AUC1) was 2780 ng·h/mL and the AUC ([2]; oral, 800 mg, subjects 301-312 (800 mg cohort), Mean, read-out: Fospropofol AUC2) was 3330 ng·h/mL. The AUC ([2]; oral, 800 mg, subjects 301-312 (800 mg cohort), Mean, read-out: Fospropofol AUC4) was 3440 ng·h/mL, the Cmax ([2]; oral, 800 mg, subjects 301-312 (800 mg cohort), Mean) was 6040 ng/mL and the Tmax ([2]; oral, 800 mg, subjects 301-312 (800 mg cohort), Mean, read-out: Fospropofol Tmax) was 20.4 min. It also gave a Tmax ([2]; oral, 800 mg, subjects 301-312 (800 mg cohort), individual subjects (Subject No. in c0), read-out: Fospropofol Tmax) of 30 min, a Tmax ([2]; oral, 200 to 2000 mg cohorts, read-out: Fospropofol median Tmax (converted)) of about 20 min and a Cmax ([2]; po, 200 mg, oral fospropofol disodium 200 mg, mean) of 1980 ng/mL. It also gave a Tmax ([2]; po, 200 mg, oral fospropofol disodium 200 mg, median, read-out: Fospropofol Tmax) of 19.8 min, a Cmax ([2]; po, 400 mg, oral fospropofol disodium 400 mg, mean) of 4460 ng/mL and a Tmax ([2]; po, 400 mg, oral fospropofol disodium 400 mg, median, read-out: Fospropofol Tmax) of 19.8 min. It also gave a Cmax ([2]; po, 800 mg, oral fospropofol disodium 800 mg, mean) of 6040 ng/mL, a Tmax ([2]; po, 800 mg, oral fospropofol disodium 800 mg, median, read-out: Fospropofol Tmax) of 19.8 min and a Cmax ([2]; po, 1000 mg, oral fospropofol disodium 1000 mg, mean) of 8240 ng/mL. The Tmax ([2]; po, 1000 mg, oral fospropofol disodium 1000 mg, median, read-out: Fospropofol Tmax) was 19.8 min, the Cmax ([2]; po, 1200 mg, oral fospropofol disodium 1200 mg, Fasted (Cohort 5), n = 10, mean) was 7110 ng/mL and the Tmax ([2]; po, 1200 mg, oral fospropofol disodium 1200 mg, Fasted (Cohort 5), n = 10, median, read-out: Fospropofol Tmax) was 19.8 min. It also gave a Cmax ([2]; po, 1200 mg, oral fospropofol disodium 1200 mg, mean) of 7110 ng/mL, a Tmax ([2]; po, 1200 mg, oral fospropofol disodium 1200 mg, median, read-out: Fospropofol Tmax) of 19.8 min and a Cmax ([2]; po, 1600 mg, oral fospropofol disodium 1600 mg, mean) of 10200 ng/mL. It also gave a Tmax ([2]; po, 1600 mg, oral fospropofol disodium 1600 mg, median, read-out: Fospropofol Tmax) of 19.8 min, a Cmax ([2]; po, 2000 mg, oral fospropofol disodium 2000 mg, mean) of 17100 ng/mL and a Tmax ([2]; po, 2000 mg, oral fospropofol disodium 2000 mg, median, read-out: Fospropofol Tmax) of 22.8 min. The AUC(0-t) [2, 3] was 856 ng·h/mL, the AUC(0-inf) [2, 3] was 882 ng·h/mL and the half-life [2, 3] was 12.6 min. For the same compound, the AUC(0-t) [2, 4] was 2200 ng·h/mL, the AUC(0-inf) [2, 4] was 2230 ng·h/mL and the half-life [2, 4] was 14.4 min. For the same compound, the AUC(0-t) [2, 5] was 3290 ng·h/mL, the AUC(0-inf) [2, 5] was 3360 ng·h/mL and the half-life [2, 5] was 16.2 min. For the same compound, the AUC(0-t) [2, 6] was 4700 ng·h/mL, the AUC(0-inf) [2, 6] was 4840 ng·h/mL and the half-life [2, 6] was 17.4 min. For the same compound, the AUC(0-t) [2, 7] was 4400 ng·h/mL, the AUC(0-inf) [2, 7] was 4500 ng·h/mL and the half-life [2, 7] was 20.4 min. The AUC(0-t) [2, 8] was 6090 ng·h/mL, the AUC(0-inf) [2, 8] was 6300 ng·h/mL and the half-life [2, 8] was 21 min. For the same compound, the AUC(0-t) [2, 9] was 10800 ng·h/mL, the AUC(0-inf) [2, 9] was 11000 ng·h/mL and the half-life [2, 9] was 22.2 min. For the same compound, the “Fospropofol concentration relative to Cmax” value ([2]; by 2 hours after dosing) was “less than 10 % of Cmax”, the “Fospropofol AUC0-T/mg FOSP DiNa” value ([2]; dose 200 mg FOSPDiNa) was 4.28 (ng · h/mL)/mg and the “Fospropofol AUC0-∞/mg FOSP DiNa” value ([2]; dose 200 mg FOSPDiNa) was 4.41 (ng · h/mL)/mg. The “Fospropofol Cmax/mg FOSP DiNa” value ([2]; dose 200 mg FOSPDiNa) was 9.89 (ng/mL)/mg, the “Fospropofol AUC0-T/mg FOSP DiNa” value ([2]; dose 400 mg FOSPDiNa) was 5.51 (ng · h/mL)/mg and the “Fospropofol AUC0-∞/mg FOSP DiNa” value ([2]; dose 400 mg FOSPDiNa) was 5.58 (ng · h/mL)/mg. The “Fospropofol Cmax/mg FOSP DiNa” value ([2]; dose 400 mg FOSPDiNa) was 11.15 (ng/mL)/mg, the “Fospropofol AUC0-T/mg FOSP DiNa” value ([2]; dose 800 mg FOSPDiNa) was 4.11 (ng · h/mL)/mg and the “Fospropofol AUC0-∞/mg FOSP DiNa” value ([2]; dose 800 mg FOSPDiNa) was 4.20 (ng · h/mL)/mg. The “Fospropofol Cmax/mg FOSP DiNa” value ([2]; dose 800 mg FOSPDiNa) was 7.55 (ng/mL)/mg, the “Fospropofol AUC0-T/mg FOSP DiNa” value ([2]; dose 1000 mg FOSPDiNa) was 4.70 (ng · h/mL)/mg and the “Fospropofol AUC0-∞/mg FOSP DiNa” value ([2]; dose 1000 mg FOSPDiNa) was 4.85 (ng · h/mL)/mg. The “Fospropofol Cmax/mg FOSP DiNa” value ([2]; dose 1000 mg FOSPDiNa) was 8.24 (ng/mL)/mg, the “Fospropofol AUC0-T/mg FOSP DiNa” value ([2]; dose 1200 mg FOSPDiNa) was 3.67 (ng · h/mL)/mg and the “Fospropofol AUC0-∞/mg FOSP DiNa” value ([2]; dose 1200 mg FOSPDiNa) was 3.75 (ng · h/mL)/mg. The “Fospropofol Cmax/mg FOSP DiNa” value ([2]; dose 1200 mg FOSPDiNa) was 5.93 (ng/mL)/mg, the “Fospropofol AUC0-T/mg FOSP DiNa” value ([2]; dose 1600 mg FOSPDiNa) was 3.81 (ng · h/mL)/mg and the “Fospropofol AUC0-∞/mg FOSP DiNa” value ([2]; dose 1600 mg FOSPDiNa) was 3.94 (ng · h/mL)/mg.
